From patent publication US9023354B2, “Combination therapy with MDM2 and EFGR inhibitors” (priority 2010, dated 2015) come the findings set out here.

Molecules are shown by their SMILES. Like-named read-outs stand apart in the source and are kept apart here.

For this experiment, the system named is A431 cells. Description: A431 cell proliferation assay (MTT), alone and in combination with Tarceva. The experiment is classed as cell-based. To be noted: for IC50: further studies, Example 9, Table 7A, read-out: A431 Cell Proliferation (IC50 Value); for A431 Cell Proliferation CI Value: combination with Tarceva, CI <0.8 indicates synergy, Example 9, Table 7B. As to the method:
This example describes an assay that measures the ability of compounds to inhibit the proliferation of cultured cells. This assay can also be used to assess whether combining two or more compounds produces additive, synergistic, or antagonistic effects on cell growth.
On day 1, the cells were seeded at 10^3 cells per well in 100 μl of complete media under standard conditions.
On day 2, the cells were washed and 100 μl serum free media was added. The cells were then incubated for at least 2 hours before the addition of compound(s). 20 μl of compound(s) was added to the respective wells and incubated at 37° C., 5% CO2 for 72 hrs.
On day 5, 50 μl of the MTT dye solution was added to each well. The plates were incubated at 37° C., 5% CO2 for 1 hr. The media was then aspirated and the cells were resuspended in […] of DMSO. The plates were allowed to incubate for 5 min at room temperature with gentle shaking.
The absorbance in each well was determined at 560 nm using a Polarstar plate reader.
The A431 cell line over-expresses the EGF receptor, and was utilized to assess the ability of AD4 compounds to inhibit EGF-mediated cell proliferation.

Setting [1] is: Homo sapiens, A-431, A431 cells.

As to `Oc1c(C(Nc2ccc(F)cn2)c2ccc(Cl)c(C(F)(F)F)c2)ccc2cccnc12` (stereo not drawn) [AD4-13071], the “A431 Cell Proliferation CI Value” was found to be 0.70. Also, the IC50 under setting [1] was found to be 3.5 µM.

Regarding `Oc1c(C(Nc2cc(Cl)c(Cl)cn2)c2ccc(Cl)c(Cl)c2)ccc2cccnc12` (stereo not drawn) [AD4-13177], the “A431 Cell Proliferation CI Value” came out at 0.9. The IC50 under setting [1] was 2 µM.

For `Oc1c(C(Nc2ccc(F)cn2)c2c(F)c(F)cc(F)c2F)ccc2cccnc12` (stereo not drawn) [AD4-13070], the “A431 Cell Proliferation CI Value” worked out at 0.65.

As for `Oc1c(C(Nc2ccc(Cl)cn2)c2ccc(Cl)c(C(F)(F)F)c2)ccc2cccnc12` (stereo not drawn) [AD4-13067], the “A431 Cell Proliferation CI Value” is recorded as 0.63.

Turning to `Cc1cc(Cl)cnc1NC(c1ccc(F)cc1Cl)c1ccc2cccnc2c1O` (stereo not drawn) [AD4-13139], the “A431 Cell Proliferation CI Value” was 0.75. Moreover, for the setting “A431 cells”, the IC50 is 1.4 µM.

For `Cc1cccc(NC(c2cccc(Cl)c2Cl)c2ccc3cccnc3c2O)n1` (stereo not drawn) [AD4-12905], the “A431 Cell Proliferation CI Value” is listed as 0.67.

In the case of `Oc1c(C(Nc2ccc(Cl)cn2)c2ccc(F)cc2Cl)ccc2cccnc12` (stereo not drawn) [AD4-13088], the “A431 Cell Proliferation CI Value” was found to be 0.76. Under setting [1], the IC50 turned out to be 1.5 µM.

For the molecule `Oc1c(C(Nc2cccnc2)c2cccc(Cl)c2Cl)ccc2cccnc12` (stereo not drawn) [AD4-12908], the “A431 Cell Proliferation CI Value” stood at 0.64. Also, under setting [1], the IC50 came to 4.2 µM.

As for `Cc1ccnc(NC(c2ccc(Cl)c(Cl)c2)c2ccc3cccnc3c2O)c1` (stereo not drawn) [AD4-12917], the “A431 Cell Proliferation CI Value” was 0.54.

With `Oc1c(C(Nc2ccc(Cl)cn2)c2cccc(Cl)c2Cl)ccc2cccnc12` (stereo not drawn) [AD4-13086], the “A431 Cell Proliferation CI Value” amounted to 0.80. Besides, under setting [1], the IC50 came out at 1.5 µM.

As to `Oc1c(C(Nc2ccc(C(F)(F)F)nc2)c2ccc(Cl)c(Cl)c2)ccc2cccnc12` (stereo not drawn) [AD4-13064], the “A431 Cell Proliferation CI Value” is reported as 0.64. For the same molecule, the IC50 under setting [1] is 5.1 µM.

As for `Cc1ccc2ccc(C(Nc3cccnc3)c3c(F)c(F)c(OCC(F)(F)F)c(F)c3F)c(O)c2n1` (stereo not drawn) [AD4-13101], the “A431 Cell Proliferation CI Value” was found to be 0.66.

Consider `Cc1cccc(NC(c2ccc(OC(F)(F)F)cc2)c2ccc3cccnc3c2O)n1` (stereo not drawn) [AD4-12902], for which the “A431 Cell Proliferation CI Value” is 0.7.

For `Cc1cc(NC(c2ccc(C(F)(F)F)cc2C(F)(F)F)c2ccc3cccnc3c2O)ncc1Cl` (stereo not drawn) [AD4-13124], the “A431 Cell Proliferation CI Value” is recorded as 0.76. The IC50 under setting [1] turned out to be 1.6 µM.

Consider `Oc1c(C(Nc2ccc(F)cn2)c2ccc(F)cc2Cl)ccc2cccnc12` (stereo not drawn) [AD4-13099], for which the “A431 Cell Proliferation CI Value” was 0.61.

Consider `Oc1c(C(Nc2ccc(C(F)(F)F)nc2)c2cc(C(F)(F)F)ccc2Cl)ccc2cccnc12` (stereo not drawn) [AD4-13062], for which the “A431 Cell Proliferation CI Value” is on record as 0.57.

On to `Oc1c(C(Nc2ccc(F)cn2)c2cc(Cl)ccc2Cl)ccc2cccnc12` (stereo not drawn) [AD4-13102], for which the “A431 Cell Proliferation CI Value” is 0.75. The IC50 under setting [1] came to 1.4 µM.

Regarding `Oc1c(C(Nc2ccccn2)c2cc(Cl)ccc2Cl)ccc2cccnc12` (stereo not drawn) [AD4-12910], the “A431 Cell Proliferation CI Value” was found to be 0.69.

For `Oc1c(C(Nc2ncc(Cl)cc2F)c2cccc(C(F)(F)F)c2)ccc2cccnc12` (stereo not drawn) [AD4-13145], the “A431 Cell Proliferation CI Value” was 0.86. In addition, under setting [1], the IC50 is 2.4 µM.

Turning to `Oc1c(C(Nc2ccc(Cl)cn2)c2cc(Cl)cc(Cl)c2)ccc2cccnc12` (stereo not drawn) [AD4-13094], the “A431 Cell Proliferation CI Value” is listed as 0.76. Besides, under setting [1], the IC50 was 1.3 µM.

As for `Oc1c(C(Nc2ccc(C(F)(F)F)nc2)c2ccc(Cl)cc2Cl)ccc2cccnc12` (stereo not drawn) [AD4-13066], the “A431 Cell Proliferation CI Value” worked out at 0.60. Under setting [1], the IC50 stood at 5.4 µM.

With `Oc1c(C(Nc2ccc(Cl)cn2)c2ccccc2Cl)ccc2cccnc12` (stereo not drawn) [AD4-13087], the “A431 Cell Proliferation CI Value” was determined as 0.70. Also, the IC50 under setting [1] came to 1.8 µM.

Turning to `Oc1c(C(Nc2ccc(C(F)(F)F)cn2)c2ccc(C(F)(F)F)cc2F)ccc2cccnc12` (stereo not drawn) [AD4-13031], the “A431 Cell Proliferation CI Value” worked out at 0.74. Moreover, the IC50 under setting [1] was 1.6 µM.

As for `Oc1c(C(Nc2ccc(F)cn2)c2ccc(C(F)(F)F)c(F)c2)ccc2cccnc12` (stereo not drawn) [AD4-13061], the “A431 Cell Proliferation CI Value” was 0.79. In addition, under setting [1], the IC50 turned out to be 2.2 µM.

For the molecule `Cc1cc(NC(c2ccc(F)cc2Cl)c2ccc3cccnc3c2O)ncc1F` (stereo not drawn) [AD4-13115], the “A431 Cell Proliferation CI Value” is on record as 0.74. For the same molecule, the IC50 under setting [1] came to 1.6 µM.

Consider `Oc1c(C(Nc2cc(Cl)ccn2)c2ccc(Cl)c(Cl)c2)ccc2cccnc12` (stereo not drawn) [AD4-13069], for which the “A431 Cell Proliferation CI Value” is 0.91. For the same molecule, the IC50 under setting [1] was found to be 0.92 µM.

With `Cc1cccc(NC(c2ccc3cccnc3c2O)c2c(F)c(F)cc(F)c2F)n1` (stereo not drawn) [AD4-12918], the “A431 Cell Proliferation CI Value” is given as 0.65.

On to `Oc1c(C(Nc2ccc(C(F)(F)F)cn2)c2ccc(Cl)c(C(F)(F)F)c2)ccc2cccnc12` (stereo not drawn) [AD4-13032], for which the “A431 Cell Proliferation CI Value” is recorded as 0.69. Also, under setting [1], the IC50 stood at 1.8 µM.

For the molecule `Oc1c(C(Nc2ccc(Cl)cn2)c2cc(Cl)cc(Cl)c2Cl)ccc2cccnc12` (stereo not drawn) [AD4-13111], the “A431 Cell Proliferation CI Value” was determined as 0.95. Moreover, under setting [1], the IC50 came out at 0.74 µM.

On to `Cc1cccc(NC(c2cc(Cl)cc(Cl)c2)c2ccc3ccc(C)nc3c2O)n1` (stereo not drawn) [AD4-13075], for which the “A431 Cell Proliferation CI Value” came out at 0.83. Moreover, the IC50 under setting [1] was found to be 1.4 µM.

For `COc1ccc(C(Nc2cc(Cl)c(Cl)cn2)c2ccc3cccnc3c2O)cc1OC` (stereo not drawn) [AD4-13195], the “A431 Cell Proliferation CI Value” came to 0.81.

On to `Oc1c(C(Nc2ccc(F)cn2)c2cccc(Cl)c2Cl)ccc2cccnc12` (stereo not drawn) [AD4-13103], for which the “A431 Cell Proliferation CI Value” was 0.79. In addition, the IC50 under setting [1] was determined as 1.4 µM.

With `Cc1cc(Cl)cnc1NC(c1ccc(F)cc1F)c1ccc2cccnc2c1O` (stereo not drawn) [AD4-13068], the “A431 Cell Proliferation CI Value” was found to be 0.68. The IC50 under setting [1] came to 5.8 µM.

As to `Oc1c(C(Nc2cccnc2)c2cccs2)ccc2cccnc12` (stereo not drawn) [AD4-10315], the “A431 Cell Proliferation CI Value” is on record as 0.79.

For `Cc1cc(Cl)cnc1NC(c1ccc(F)cc1Cl)c1ccc2cccnc2c1O` (stereo not drawn) [AD4-13198], the “A431 Cell Proliferation CI Value” stood at 0.87. The IC50 (A431 cells) was 3 µM.

Regarding `COc1ccc(C(Nc2cc(Cl)c(Cl)cn2)c2ccc3cccnc3c2O)c(OC)c1OC` (stereo not drawn) [AD4-13197], the “A431 Cell Proliferation CI Value” was found to be 0.63.

In the case of `Oc1c(C(Nc2ccc(F)cn2)c2cc(Cl)cc(Cl)c2Cl)ccc2cccnc12` (stereo not drawn) [AD4-13132], the “A431 Cell Proliferation CI Value” amounted to 0.82. In addition, the IC50 under setting [1] was 1.9 µM.

As to `Oc1c(C(Nc2ccc(F)cn2)c2ccccc2Cl)ccc2cccnc12` (stereo not drawn) [AD4-13104], the “A431 Cell Proliferation CI Value” is recorded as 0.67. The IC50 under setting [1] amounted to 2.8 µM.

As to `Cc1ccnc(NC(c2ccc(C(F)(F)F)cc2F)c2ccc3ccc(C)nc3c2O)c1` (stereo not drawn) [AD4-13096], the “A431 Cell Proliferation CI Value” was found to be 0.61. The IC50 under setting [1] came to 3 µM.

Regarding `Cc1ccnc(NC(c2ccc3cccnc3c2O)c2c(F)c(F)c(OCC(F)(F)F)c(F)c2F)c1` (stereo not drawn) [AD4-13092], the “A431 Cell Proliferation CI Value” was 0.79. In addition, the IC50 under setting [1] was 1.5 µM.

Consider `Oc1c(C(Nc2ccc(C(F)(F)F)nc2)c2ccc(C(F)(F)F)cc2)ccc2cccnc12` (stereo not drawn) [AD4-13063], for which the “A431 Cell Proliferation CI Value” is 0.77. Further, under setting [1], the IC50 amounted to 4.4 µM.

Turning to `COc1ccc(C(Nc2cc(C)c(Cl)cn2)c2ccc3cccnc3c2O)c(OC)c1OC` (stereo not drawn) [AD4-13196], the “A431 Cell Proliferation CI Value” was 0.69.

Regarding `Oc1c(C(Nc2ccc(C(F)(F)F)nc2)c2ccc(C(F)(F)F)c(F)c2)ccc2cccnc12` (stereo not drawn) [AD4-13051], the “A431 Cell Proliferation CI Value” was found to be 0.72. For the same molecule, the IC50 under setting [1] was found to be 1.6 µM.

As to `Cc1cc(NC(c2ccc3cccnc3c2O)c2c(F)cccc2Cl)ncc1F` (stereo not drawn) [AD4-13117], the “A431 Cell Proliferation CI Value” turned out to be 0.72. The IC50 under setting [1] was determined as 1.3 µM.

In the case of `Cc1cccc(NC(c2ccc(Cl)cc2Cl)c2ccc3ccc(C)nc3c2O)n1` (stereo not drawn) [AD4-13082], the “A431 Cell Proliferation CI Value” turned out to be 0.90. For the same molecule, the IC50 under setting [1] stood at 1.9 µM.

With `Cc1cc(NC(c2cc(Cl)cc(Cl)c2)c2ccc3cccnc3c2O)ncc1Cl` (stereo not drawn) [AD4-13122], the “A431 Cell Proliferation CI Value” was determined as 0.84. Further, the IC50 under setting [1] was found to be 1.6 µM.

For `Cc1cc(Cl)cnc1NC(c1ccc(C(F)(F)F)c(F)c1)c1ccc2cccnc2c1O` (stereo not drawn) [AD4-13043], the “A431 Cell Proliferation CI Value” turned out to be 0.81. The IC50 under setting [1] turned out to be 2.1 µM.

With `Oc1c(C(Nc2ccccn2)c2ccc(Cl)c(C(F)(F)F)c2)ccc2cccnc12` (stereo not drawn) [AD4-13057], the “A431 Cell Proliferation CI Value” is 0.83. Moreover, the IC50 under setting [1] was 1.1 µM.

With `Oc1c(C(Nc2ccc(Cl)cn2)c2cc(C(F)(F)F)ccc2Cl)ccc2cccnc12` (stereo not drawn) [AD4-13052], the “A431 Cell Proliferation CI Value” amounted to 0.75. The IC50 under setting [1] was determined as 1 µM.

Consider `Oc1c(C(Nc2ccc(Cl)cn2)c2ccc(C(F)(F)F)c(F)c2)ccc2cccnc12` (stereo not drawn) [AD4-13055], for which the “A431 Cell Proliferation CI Value” is reported as 0.75. Further, the IC50 under setting [1] amounted to 1.5 µM.

With `Oc1c(C(Nc2ccccn2)c2cc(Cl)cc(Cl)c2)ccc2cccnc12` (stereo not drawn) [AD4-12914], the “A431 Cell Proliferation CI Value” came out at 0.74. In addition, the IC50 under setting [1] was 1.4 µM.

Regarding `Oc1c(C(Nc2ccccn2)c2ccc(Cl)cc2Cl)ccc2cccnc12` (stereo not drawn) [AD4-10484], the “A431 Cell Proliferation CI Value” is on record as 0.97.

Take `Cc1cc(NC(c2ccc(C(F)(F)F)cc2)c2ccc3cccnc3c2O)ncc1Cl` (stereo not drawn) [AD4-13121]: the “A431 Cell Proliferation CI Value” worked out at 0.75. Moreover, the IC50 under setting [1] was found to be 1.9 µM.

Regarding `Oc1c(C(Nc2ccc(Cl)cn2)c2c(F)cccc2Cl)ccc2cccnc12` (stereo not drawn) [AD4-13091], the “A431 Cell Proliferation CI Value” was 0.89. The IC50 under setting [1] was 1.6 µM.
